Measurements reported in PMC12973313 (Chemical Science, 2026).
In brackets after ≈: the same amount, converted by molar mass. Several values for one entry are separate records, joined by “and”; a condition that tells them apart may be missing. Equal values may be shown once. Read-outs that look alike come from different tables or passages of the source.

Key:
[1] = system: S. aureus ATCC 9144; test: MIC assay; type: cell-based, Staphylococcus aureus
Experimental: (§1) Next generation SSAs 3, 5, 7, and 9 were specifically designed to increase the activity of SSAs against both drug susceptible and resistant S. aureus and ovarian cancer cells. […] These strains include: (i) USA300, a common clinically relevant, methicillin resistant strain;[47] […]
(§2) Section S3: Biological methods […]
(§3) Preparation of bacterial plates : Sterile TSB agar plates were streaked using the desired […]
(§4) Preparation of inoculum: An initial culture was made up by inoculating TSB (5 mL) with 3 single colonies of the desired bacteria under sterile conditions and incubated at 37 °C overnight. The optical density at 600 nm (OD 600) was adjusted using sterile distilled H 2O (dH2O) to equal ~1 x 10^6 bacteria/mL.
(§5) Preparation of 96 -well microplate : A solution of each compound in H2O/5 % EtOH was made […]
(§6) The compound solution (200 […]
(§7) µL) was added to and diluted 50:50 down the plate. The bacterial suspension (100 µL) was dispensed into each well under sterile conditions. […]

[2] = 1H NMR DOSY, DMSO-d6 0.5% H2O; type: physicochemical; details: 298 K; for dH (nm), hydrodynamic diameter, anionic component: 1H NMR DOSY, DMSO-d6 0.5% H2O, 112 mM; for Hydrodynamic diameter (nm) Cationic component: DMSO-d6/0.5 % H2O
[3] = system: A2780 CisR cisplatin resistant ovarian cancer cells; test: GI50 determination, SRB assay; type: cell-based, human; details: read-out: Mean GI50 (μM) A2780 CisR SRB Assays
Experimental: (§8) GI50 determination assays
(§9) Cell culture: The RPE-1 retinal pigment epithelial, A2780 human ovarian carcinoma, and A2780 CisR cisplatin resistant human ovarian carcinoma cell lines were donated with thanks from the Institute of Cancer Research. The A2780 and A2780 CisR cell lines were cultured in IMDM supplemented with 10 % FBS at 37 °C and 5 % CO2, while the RPE-1 cell line was cultured in a 1:1 mixture of Dulbecco's Modified Eagle Medium and Ham’s F-12 Nutrient Mixture (DMEM/F-12) at 37 °C and 5 % CO2.
(§10) SRB assay: Cells were seeded into 96-well plates at 800 cells per well/cpw (A2780), 1600 cpw (A2780 CisR) or 400 cpw (RPE-1) in cell culture medium and cultured for 48 hours followed by addition of each compound over an eight-point concentration range (each concentration in triplicate). Plates were then cultured for a further 96 hours, after which the cell culture […]
(§11) medium was removed from each well and the cells fixed with addition of 70 µL/well of 10 % (w/v) trichloroacetic acid (TCA) in distilled water followed by incubation for 30 minutes at RT.
(§12) Each plate was then washed with distilled water five times before addition of 70 µL SRB dye (0.4 % (w/v) SRB dye (ThermoFisher Scientific, USA) solubilised in 1 % (v/v) acetic acid/ dH2O) and incubat ed for 30 minutes at RT, followed by washing three times with 1 % (v/v) acetic acid and drying in a 37 °C oven overnight. Once dry, 100 μl of 10 mM Tris -base (ThermoFisher Scientific, USA) was added to each well and plates put on a microplate shaker for 10 minutes at 200 rpm to solubilize the dye. Absorbance values were then read at wavelength 490 nm on a Victor X4 multi-label plate reader (PerkinElmer Life Sciences, USA), data analysed using Microsoft Excel and graphs produced using GraphPad Prism 9.0 and the GI50 value calculated.
(§13) Solutions and compo und preparation: All solvents and starting materials were purchased from known chemical suppliers. Compound stock solutions were prepared in DMSO. Buffer […]
(§14) 500 mM. Buffer B consisted of Na2SO4 (167 mM) and NaOAc (5 mM) with a pH of 5.5 and an ionic strength of 500 mM.
(§15) Vesicle formation: Giant unilamellar Vesicles (GUVS) were prepared through the electro formation method using a Nanion VesiclePrepPro. A solution of 1,2-diphytanoyl-sn-glycero-3-phosphocholine (DPhPC) (10 mM) with 10 % cholesterol in chloroform (20 µL) was deposited onto an ITO coated glass surface (surface coated glass slide) and allowed to evaporate to create a dehydrated thin lipid film. A greased O-ring was then placed around the dehydrated lipid film to create a seal. This volume was then filled with a sucrose solution (275 µL, 200 mM) and then sealed with a second ITO coated glass slide. An AC current (3 V/5 Hz) was then applied. After 2 hrs, the voltage and frequency were reduced in steps over 30 mins to 1.6 V/1 Hz and held for 1 hr before being reduced to 0 V/0 Hz over a further 30 min […]
(§16) Patch clamp measurements: Experiments were performed using a Port-a-Patch system (Nanion Technologies) with borosilicate glass chips that contain an aperture diameter of approximately 1 µm. Buffer A (5 µL) was placed on the underside of the chip over the aperture, The chip was then placed into the port-a-patch system. Buffer A (15 µL) was then added to the top of the chip and 5 µL of the GUV stock solution added. The GUVS were the positioned over the aperture in the chip by application of negative pressure (-30 mbar).
(§17) When a GUV is positioned over the aperture in the chip, it bursts, leaving a planar bilayer as a seal. The negative pressure is then removed, leaving the planar bilayer in place over the aperture. The external buffer A was the exchanged with buffer B, through four simultaneous […]
(§18) buffer exchanges (4 x 15 µL). […]
(§19) = 30 s, to give a final experimental concentration of 0.1 – 1 mM as appropriate. The number of sweeps was set to 1000, the sweep interval to 0.00 s, sample interval to 1.00 ms and the protocol was run for a total of 5 mins. Each experiment was repeated a minimum of three time to ensure reproducibility.

[4] = system: RPE-1 cells; test: GI50 determination, SRB assay; type: cell-based, human; details: read-out: Mean GI50 (μM) RPE-1 SRB Assays
Experimental: as §8, §9, §10, §11, §12, §13, §14, §15, §16, §17, §18, §19

[5] = system: A2780 ovarian cancer cells; test: GI50 determination, SRB assay; type: cell-based, human; details: for GI50: 96 hours, read-out: Mean GI50 (μM) A2780 SRB Assays
Experimental: as §8, §9, §10, §11, §12, §13, §14, §15, §16, §17, §18, §19

[6] = system: S. aureus 1199B; test: microbe, parasite or virus in culture; type: cell-based, Staphylococcus aureus; details: for MIC: Staphylococcus aureus, 1199B; for MIC (mM) S. aureus 1199B: lowest concentration with no visible growth; for MIC 1199B: total molecular concentration
Experimental: as §1, §2, §3, §4, §5, §6, §7

[7] = system: E. Faecalis NCTC 775; test: MIC assay; type: cell-based, Enterococcus faecalis; details: for MIC: Enterococcus faecalis, NCTC775, lowest concentration with no visible growth
Experimental: as §2
Preparation of bacterial plates : Sterile TSB agar plates were streaked using the desired bacteria [Staphylococcus aureus (9144, 13616, USA 300 and 1199B ), Enterococcus faecalis (NCTC 775 and 12201 ) and Enterococcus faecium (NCTC 12204)] and incubated at 37 °C […]
as §4, §5
. The compound solution (200
[…]. The bacterial suspension (100 µL) was dispensed into each well under sterile conditions. The plates were sealed using parafilm and incubated at 37 °C for 20 hours, after which the OD 600 was measured.

[8] = Staphylococcus aureus, ATCC9144, 15 h, total molecular concentration, after 900 min, read-out: MIC ATCC 9144
[9] = Staphylococcus aureus, ATCC9144, lowest concentration with no visible growth, read-out: MIC (mM) S. aureus 9144
[10] = 15 h, read-out: MIC 1199B, total molecular concentration, after 900 min
[11] = read-out: MIC (mM) S. aureus 1199B, lowest concentration with no visible growth
[12] = lowest concentration with no visible growth, listed as 5

For `O=C(Nc1ccc(C(F)(F)F)cc1)N[C@@H](Cc1ccccc1)C(=O)O` [SSA 7], the MIC [1, 8] was 0.087 mM (≈ 30.7 µg/mL), the MIC [1, 9] was 0.087 mM (≈ 30.7 µg/mL) and the “dH (nm), hydrodynamic diameter, anionic component” value (“dH (nm), hydrodynamic diameter” below) [2] was 1.70 nm and 1.7 nm. For the same compound, the “Hydrodynamic diameter (nm) Cationic component” value [2] was 1.27 nm, the GI50 ([3]; Homo sapiens, A2780cisR, 96 h) was 356 µM and the GI50 ([4]; Homo sapiens, RPE-1, 96 h) was greater than 375 µM. The GI50 ([5]; Homo sapiens, A2780, 96 h) was 178 µM, the MIC [6, 10] was 0.174 mM (≈ 61.3 µg/mL) and the MIC [6, 11] was 0.174 mM (≈ 61.3 µg/mL). It also gave an MIC [7] greater than 2.78 mM.
With `CC(C)CC(NC(=O)Nc1ccc(C(F)(F)F)cc1)C(=O)O` (stereo not shown) [SSA 5] the “MIC (mM) S. aureus 9144” value [1, 12] was 0.174 mM (≈ 55.4 µg/mL), the MIC ([1]; total molecular concentration, after 900 min, listed as 5, read-out: MIC ATCC 9144) was 0.174 mM (≈ 55.4 µg/mL) and the “dH (nm), hydrodynamic diameter” value ([2]; listed as 5) was 1.70 nm and 1.7 nm. For the same compound, the “Hydrodynamic diameter (nm) Cationic component” value ([2]; listed as 5) was 1.28 nm, the GI50 ([3]; 96 hours) was 498 µM and the GI50 ([4]; 96 hours) was greater than 375 µM. The GI50 [5] was 231 µM, the “MIC (mM) S. aureus 1199B” value ([6]; listed as 5) was 2.780 mM (≈ 885 µg/mL) and the “MIC 1199B” value ([6]; after 900 min, listed as 5) was 2780 µM (≈ 885 µg/mL). For the same compound, the “MIC (mM) E. Faecalis NCTC 775” value [7, 12] was 2.780 mM (≈ 885 µg/mL).
In the case of `O=C(O)CNC(=O)Nc1ccc(C(F)(F)F)cc1` [SSA 1], the MIC [1, 8] is reported as 1.39 mM (≈ 364 µg/mL), the MIC [1, 9] is reported as 1.39 mM (≈ 364 µg/mL) and the GI50 ([3]; Homo sapiens, A2780cisR, 96 h) is reported as 367 µM. For the same compound, the GI50 ([4]; Homo sapiens, RPE-1, 96 h) was 296 µM, the GI50 ([5]; Homo sapiens, A2780, 96 h) was 117 µM and the MIC [6, 10] was greater than 2.78 mM. For the same compound, the MIC [6, 11] was greater than 2.78 mM and the MIC [7] was greater than 2.78 mM.
In the case of `O=C(Nc1ccc(C(F)(F)F)cc1)N[C@H](Cc1ccccc1)C(=O)O` [SSA 9], the MIC [1, 8] is reported as 0.174 mM (≈ 61.3 µg/mL), the MIC [1, 9] is reported as 0.174 mM (≈ 61.3 µg/mL) and the “dH (nm), hydrodynamic diameter” value [2] is reported as 1.67 nm and 1.7 nm. For the same compound, the “Hydrodynamic diameter (nm) Cationic component” value [2] was 1.24 nm, the GI50 ([3]; Homo sapiens, A2780cisR, 96 h) was 197 µM and the GI50 ([4]; Homo sapiens, RPE-1, 96 h) was greater than 375 µM. For the same compound, the GI50 ([5]; Homo sapiens, A2780, 96 h) was 105 µM, the “selectivity for the cancer cells over the RPE-1 cells” value ([5]; no impact on RPE-1 cell growth at 350 µM) was “≥ two-fold” and the MIC [6, 10] was 0.174 mM (≈ 61.3 µg/mL). The MIC [6, 11] was 0.174 mM (≈ 61.3 µg/mL) and the MIC [7] was 2.78 mM (≈ 979 µg/mL).
In the case of `CC(C)CC(NC(=O)Nc1ccc(C(F)(F)F)cc1)C(=O)O` (stereo not shown) [SSA 3], the MIC [1, 8] is reported as 0.087 mM (≈ 27.7 µg/mL), the MIC [1, 9] is reported as 0.087 mM (≈ 27.7 µg/mL) and the “dH (nm), hydrodynamic diameter” value ([2]; listed as 3) is reported as 1.66 nm and 1.7 nm. For the same compound, the “Hydrodynamic diameter (nm) Cationic component” value ([2]; listed as 3) was 1.26 nm, the GI50 ([3]; Homo sapiens, A2780cisR, 96 h) was 276 µM and the GI50 ([4]; Homo sapiens, RPE-1, 96 h) was greater than 500 µM. The GI50 ([5]; Homo sapiens, A2780, 96 h) was 171 µM, the “MIC (mM) S. aureus 1199B” value ([6]; listed as 3) was 0.087 mM (≈ 27.7 µg/mL) and the “MIC 1199B” value ([6]; after 900 min, listed as 3) was 87 µM (≈ 27.7 µg/mL). For the same compound, the MIC [7] was greater than 2.78 mM.
